Laboratory results taken from article PMC7699860 (Molecules, 2020).

Tested on: Tel-23 (DNA telomeric G4) (DNA, G4) TAGGGTTAGGGTTAGGGTTAGGG
Assay: UV melting at 290 nm
Conditions: K+ (KCl 50 mM), NaCac 2.5 mM, pH 6.5, G4 0.472 µM

Compound | ΔTm (CG4/CAg = 1.4, derived from two Tm (60 and 60)) [°C] | ΔTm (CG4/CAu = 0.5, derived from two Tm (60 and 57)) [°C]
CCN1[C]N(Cc2c3ccccc3cc3ccccc23)C=C1.CCN1[C]N(Cc2c3ccccc3cc3ccccc23)C=C1.[Ag+] | 0 | 
CCN1[C]N(Cc2c3ccccc3cc3ccccc23)C=C1.CCN1[C]N(Cc2c3ccccc3cc3ccccc23)C=C1.[Au+] |  | -3
